Legend:
Assay type in all cases: in vivo
[1] = test system: pigweed (Amaranthus retroflexus); experiment: Test A preemergence, directed soil spray; settings: approx. 10 days
Description: (§1) Seeds of plant species selected from barnyardgrass (Echinochloa crus-galli), kochia (Kochia scoparia), ragweed (common ragweed, Ambrosia elatior), Italian ryegrass (Lolium multiflorum), giant foxtail (Setaria faberii), and pigweed (Amaranthus retroflexus) were planted into a blend of loam soil and sand and treated preemergence with a directed soil spray using test chemicals formulated in a non-phytotoxic solvent mixture which included a surfactant. At the same time, plants selected from these weed species and also wheat (Triticum aestivum), corn (Zea mays), blackgrass (Alopecurus myosuroides), and galium (catchweed bedstraw, Galium aparine) were planted in pots containing the same blend of loam soil and sand and treated with postemergence applications of test chemicals formulated in the same manner. Plants ranged in height from 2 to 10 cm and were in the one- to two-leaf stage for the postemergence treatment. Treated plants and untreated controls were maintained in a greenhouse for approximately 10 days, after which time all treated plants were compared to untreated controls and visually evaluated for injury. Plant response ratings, summarized in Table A, are based on a 0 to 100 scale where 0 is no effect and 100 is complete control. A dash (-) response means no test result.

[2] = test system: giant foxtail (Setaria faberii); experiment: Test A preemergence, directed soil spray; settings: approx. 10 days
Description: as §1

[3] = test system: Italian ryegrass (Lolium multiflorum); experiment: Test A preemergence, directed soil spray; settings: approx. 10 days
Description: as §1

[4] = test system: kochia (Kochia scoparia); experiment: Test A preemergence, directed soil spray; settings: approx. 10 days
Description: as §1

[5] = test system: barnyardgrass (Echinochloa crus-galli); experiment: Test A preemergence, directed soil spray; settings: approx. 10 days
Description: as §1

[6] = test system: ragweed (common ragweed, Ambrosia elatior); experiment: Test A preemergence, directed soil spray; settings: approx. 10 days
Description: as §1

[7] = test system: blackgrass (Alopecurus myosuroides); experiment: Test A postemergence application; settings: approx. 10 days
Description: as §1

[8] = test system: pigweed (Amaranthus retroflexus); experiment: Test A postemergence application; settings: approx. 10 days
Description: as §1

[9] = test system: corn (Zea mays); experiment: Test A postemergence application; settings: approx. 10 days
Description: as §1

[10] = test system: wheat (Triticum aestivum); experiment: Test A postemergence application; settings: approx. 10 days
Description: as §1

[11] = test system: giant foxtail (Setaria faberii); experiment: Test A postemergence application; settings: approx. 10 days
Description: as §1

[12] = test system: galium (catchweed bedstraw, Galium aparine); experiment: Test A postemergence application; settings: approx. 10 days
Description: as §1

[13] = test system: Italian ryegrass (Lolium multiflorum); experiment: Test A postemergence application; settings: approx. 10 days
Description: as §1

[14] = test system: kochia (Kochia scoparia); experiment: Test A postemergence application; settings: approx. 10 days
Description: as §1

[15] = test system: barnyardgrass (Echinochloa crus-galli); experiment: Test A postemergence application; settings: approx. 10 days
Description: as §1

[16] = test system: ragweed (common ragweed, Ambrosia elatior); experiment: Test A postemergence application; settings: approx. 10 days
Description: as §1

[17] = test system: ducksalad (Heteranthera limosa); experiment: Test B flooded paddy test; design: key: 0 = no effect, 100 = complete control; settings: Flood, 250 g ai/ha applied to paddy water at 2-leaf stage; visually evaluated after 13 to 15 days; scale 0 (no effect) to 100 (complete control)
Protocol: (§2) Plant species in the flooded paddy test selected from rice (Oryza sativa), sedge, umbrella (small-flower umbrella sedge, Cyperus difformis), ducksalad (Heteranthera limosa), and barnyardgrass (Echinochloa crus-galli) were grown to the 2-leaf stage for testing. At time of treatment, test pots were flooded to 3 cm above the soil surface, treated by application of test compounds directly to the paddy water, and then maintained at that water depth for the duration of the test. Treated plants and controls were maintained in a greenhouse for 13 to 15 days, after which time all species were compared to controls and visually evaluated. Plant response ratings, summarized in Table B, are based on a scale of 0 to 100 where 0 is no effect and 100 is complete control. A dash (-) response means no test result.

[18] = test system: sedge, umbrella (small-flower umbrella sedge, Cyperus difformis); experiment: Test B flooded paddy test; design: key: 0 = no effect, 100 = complete control; settings: Flood, 250 g ai/ha applied to paddy water at 2-leaf stage; visually evaluated after 13 to 15 days; scale 0 (no effect) to 100 (complete control)
Protocol: as §2

[19] = test system: barnyardgrass (Echinochloa crus-galli); experiment: Test B flooded paddy test; design: key: 0 = no effect, 100 = complete control; settings: Flood, 250 g ai/ha applied to paddy water at 2-leaf stage; visually evaluated after 13 to 15 days; scale 0 (no effect) to 100 (complete control)
Protocol: as §2

[20] = test system: rice (Oryza sativa); experiment: Test B flooded paddy test; design: key: 0 = no effect, 100 = complete control; settings: Flood, 250 g ai/ha applied to paddy water at 2-leaf stage; visually evaluated after 13 to 15 days; scale 0 (no effect) to 100 (complete control)
Protocol: as §2

`O=c1cccc(Oc2ncc(Cl)cn2)n1-c1cccc(C(F)(F)F)c1` [Compound 2, 6-[(5-chloro-2-pyrimidinyl)oxy]-1-[3-(trifluoromethyl)phenyl]-2(1H)-pyridinone] was tested, and the “Plant response rating (0 to 100 scale, 0 no effect, 100 complete control), Pigweed” value ([1]; 125 g ai/ha) was 0, the “Plant response rating (0 to 100 scale, 0 no effect, 100 complete control), Pigweed” value ([1]; 500 g ai/ha) was 20 and the “Plant response rating (0 to 100 scale, 0 no effect, 100 complete control), Foxtail, Giant” value ([2]; 125 g ai/ha) was 0. For the same compound, the “Plant response rating (0 to 100 scale, 0 no effect, 100 complete control), Foxtail, Giant” value ([2]; 500 g ai/ha) was 90, the “Plant response rating (0 to 100 scale, 0 no effect, 100 complete control), Ryegrass, Italian” value ([3]; 125 g ai/ha) was 0 and the “Plant response rating (0 to 100 scale, 0 no effect, 100 complete control), Ryegrass, Italian” value ([3]; 500 g ai/ha) was 0. The “Plant response rating (0 to 100 scale, 0 no effect, 100 complete control), Kochia” value ([4]; 125 g ai/ha) was 0, the “Plant response rating (0 to 100 scale, 0 no effect, 100 complete control), Kochia” value ([4]; 500 g ai/ha) was 30 and the “Plant response rating (0 to 100 scale, 0 no effect, 100 complete control), Barnyardgrass” value ([5]; 125 g ai/ha) was 0. For the same compound, the “Plant response rating (0 to 100 scale, 0 no effect, 100 complete control), Barnyardgrass” value ([5]; 500 g ai/ha) was 0, the “Plant response rating (0 to 100 scale, 0 no effect, 100 complete control), Ragweed” value ([6]; 125 g ai/ha) was 0 and the “Plant response rating (0 to 100 scale, 0 no effect, 100 complete control), Ragweed” value ([6]; 500 g ai/ha) was 0. For the same compound, the “Plant response rating (0 to 100 scale, 0 no effect, 100 complete control), Blackgrass” value ([7]; 125 g ai/ha) was 0, the “Plant response rating (0 to 100 scale, 0 no effect, 100 complete control), Blackgrass” value ([7]; 500 g ai/ha) was 0 and the “Plant response rating (0 to 100 scale, 0 no effect, 100 complete control), Pigweed” value ([8]; 125 g ai/ha) was 30. For the same compound, the “Plant response rating (0 to 100 scale, 0 no effect, 100 complete control), Pigweed” value ([8]; 500 g ai/ha) was 80, the “Plant response rating (0 to 100 scale, 0 no effect, 100 complete control), Corn” value ([9]; 125 g ai/ha) was 0 and the “Plant response rating (0 to 100 scale, 0 no effect, 100 complete control), Corn” value ([9]; 500 g ai/ha) was 20. For the same compound, the “Plant response rating (0 to 100 scale, 0 no effect, 100 complete control), Wheat” value ([10]; 125 g ai/ha) was 0, the “Plant response rating (0 to 100 scale, 0 no effect, 100 complete control), Wheat” value ([10]; 500 g ai/ha) was 20 and the “Plant response rating (0 to 100 scale, 0 no effect, 100 complete control), Foxtail, Giant” value ([11]; 125 g ai/ha) was 0. The “Plant response rating (0 to 100 scale, 0 no effect, 100 complete control), Foxtail, Giant” value ([11]; 500 g ai/ha) was 60, the “Plant response rating (0 to 100 scale, 0 no effect, 100 complete control), Galium” value ([12]; 125 g ai/ha) was 20 and the “Plant response rating (0 to 100 scale, 0 no effect, 100 complete control), Galium” value ([12]; 500 g ai/ha) was 60. For the same compound, the “Plant response rating (0 to 100 scale, 0 no effect, 100 complete control), Ryegrass, Italian” value ([13]; 125 g ai/ha) was 0, the “Plant response rating (0 to 100 scale, 0 no effect, 100 complete control), Ryegrass, Italian” value ([13]; 500 g ai/ha) was 0 and the “Plant response rating (0 to 100 scale, 0 no effect, 100 complete control), Kochia” value ([14]; 125 g ai/ha) was 30. The “Plant response rating (0 to 100 scale, 0 no effect, 100 complete control), Kochia” value ([14]; 500 g ai/ha) was 90, the “Plant response rating (0 to 100 scale, 0 no effect, 100 complete control), Barnyardgrass” value ([15]; 125 g ai/ha) was 0 and the “Plant response rating (0 to 100 scale, 0 no effect, 100 complete control), Barnyardgrass” value ([15]; 500 g ai/ha) was 0. For the same compound, the “Plant response rating (0 to 100 scale, 0 no effect, 100 complete control), Ragweed” value ([16]; 125 g ai/ha) was 0, the “Plant response rating (0 to 100 scale, 0 no effect, 100 complete control), Ragweed” value ([16]; 500 g ai/ha) was 0 and the “Plant response rating, Ducksalad” value [17] was 0. The “Plant response rating, Sedge, Umbrella” value [18] was 0, the “Plant response rating, Barnyardgrass” value [19] was 0 and the “Plant response rating, Rice” value [20] was 0.

Source: patent US9963442B2, “Pyridones as herbicides” (E I DU PONT DE NEMOURS AND COMPANY, priority 2014, dated 2018)
